Measured values as given in US20160333043A1, “E-Selectin Antagonists Modified By Macrocycle Formation to the Galactose” (GLYCOMIMETICS, INC., priority 2014, published 2016).
Like-named read-outs stand apart in the source and are kept apart here.

Key:
[1] = biological target: T1, E-selectin (Homo sapiens, UniProt P16581); experiment: E-selectin activity competitive binding assay (sLe^a polyacrylamide / streptavidin-HRP conjugate); conditions: immobilized E-selectin/Ig chimera; concentration required to inhibit sLe^a binding by 50%; absorbance 450 nm
T1 construct: fused on or other part: Immunoglobulin (Ig) part fused on as a handle for immobilising and dimerising
T1 sequence (P16581 22-175 limits assumed): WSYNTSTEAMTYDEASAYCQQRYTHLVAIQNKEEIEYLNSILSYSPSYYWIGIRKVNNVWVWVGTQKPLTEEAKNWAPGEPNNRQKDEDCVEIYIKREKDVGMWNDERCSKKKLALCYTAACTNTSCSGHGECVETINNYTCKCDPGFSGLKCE
Description: An inhibition assay may be used to screen for antagonists of E-selectin. For example, an assay may be performed to characterize the capability of a compound described herein to inhibit (i.e., reduce, block, decrease, or prevent in a statistically or biologically significant manner) interaction of E-selectin with sLe^a or sLe^x. The inhibition assay may be a competitive binding assay, which allows the determination of IC50 values. By way of example, E-selectin/Ig chimera may be immobilized onto a matrix (e.g., a multi-well plate, which may be made from a polymer, such as polystyrene; a test tube, and the like); a composition may be added to reduce nonspecific binding (e.g., a composition comprising non-fat dried milk or bovine serum albumin or other blocking buffer routinely used by a person skilled in the art); the immobilized E-selectin may be contacted with the candidate compound in the presence of sLe^a comprising a reporter group under conditions and for a time sufficient to permit sLe^a to bind to the immobilized E-selectin; the immobilized E-selectin may be washed; and the amount of sLe^a bound to immobilized E-selectin may be detected. Variations of such steps can be readily and routinely accomplished by a person of ordinary skill in the art.
The inhibition assay to screen and characterize glycomimetic antagonists of E-selectin is a competitive binding assay, from which IC50 values may be determined. E-selectin/Ig chimera was immobilized in 96 well microtiter plates by incubation at 37° C. for 2 hours. To reduce nonspecific binding, bovine serum albumin was added to each well and incubated at room temperature for 2 hours. The plate was washed and serial dilutions of the test compounds were added to the wells in the presence of conjugates of biotinylated, sLe^a polyacrylamide with streptavidin/horseradish peroxidase and incubated for 2 hours at room temperature.
To determine the amount of sLe^a bound to immobilized E-selectin after washing, the peroxidase substrate, 3,3′,5,5′ tetramethylbenzidine (TMB) was added. After 3 minutes, the enzyme reaction was stopped by the addition of H3PO4, and the absorbance of light at a wavelength of 450 nm was determined.

[2] = rcm bond, Grubbs 2nd generation catalyst, 25.0 °C

Structure (SMILES)	IC50 [1] [µM]	further results
CC[C@H]1CCC[C@@H](O[C@@H]2O[C@@H]3COC(c4ccccc4)O[C@@H]3[C@@H]3O[C@@H](C(=O)OCc4ccccc4)CC=CCO[C@@H]23)[C@@H]1O[C@@H]1O[C@@H](C)[C@@H](OCc2ccccc2)[C@@H](OCc2ccccc2)[C@@H]1OCc1ccccc1 (stereo partly shown)		ring closure, yield of all isomers ([2]; from C=CCO[C@H]1[C@H](O[C@@H]2CCC[C@H](CC)[C@H]2O[C@@H]2O[C@@H](C)[C@@H](OCc3ccccc3)[C@@H](OCc3ccccc3)[C@@H]2OCc2ccccc2)O[C@@H]2COC(c3ccccc3)O[C@@H]2[C@@H]1O[C@H](CC=C)C(=O)OCc1ccccc1, 16.0 h): 66%
COC(=O)C1CC=CCO[C@H]2[C@H](O[C@@H]3CCC[C@H](C)[C@H]3O[C@@H]3O[C@@H](C)[C@@H](OCc4ccccc4)[C@@H](OCc4ccccc4)[C@@H]3OCc3ccccc3)O[C@H](COCc3ccccc3)[C@H](O)[C@@H]2O1 (stereo partly shown)		ring closure, yield of all isomers ([2]; from C=CCO[C@H]1[C@H](O[C@@H]2CCC[C@H](C)[C@H]2O[C@@H]2O[C@@H](C)[C@@H](OCc3ccccc3)[C@@H](OCc3ccccc3)[C@@H]2OCc2ccccc2)O[C@H](COCc2ccccc2)[C@H](O)[C@@H]1OC(CC=C)C(=O)OC, DCM, 5.25 mM, 2.0 h): 86%
COC(=O)C1CC=CCCO[C@H]2[C@H](O[C@@H]3CCC[C@H](C)[C@H]3O[C@@H]3O[C@@H](C)[C@@H](OCc4ccccc4)[C@@H](OCc4ccccc4)[C@@H]3OCc3ccccc3)O[C@H](COCc3ccccc3)[C@H](O)[C@@H]2O1 (stereo partly shown)		ring closure, yield of all isomers ([2]; from C=CCCO[C@H]1[C@H](O[C@@H]2CCC[C@H](C)[C@H]2O[C@@H]2O[C@@H](C)[C@@H](OCc3ccccc3)[C@@H](OCc3ccccc3)[C@@H]2OCc2ccccc2)O[C@H](COCc2ccccc2)[C@H](O)[C@@H]1OC(CC=C)C(=O)OC, DCM, 2.0 h): 82.5%

Now from value to molecule, other results behind:

IC50 [1] [µM]	Structure (SMILES)	further results
15.2	CC1O[C@@H](OC2[C@H](C)CCC[C@H]2O[C@@H]2OC(CO)[C@H](O)C3O[C@@H](C(=O)O)CCCCOC32)[C@@H](O)C(O)[C@@H]1O (stereo partly shown) [Compound 18a]	
15.8	CC1O[C@@H](OC2[C@H](C)CCC[C@H]2O[C@@H]2OC(CO)[C@H](O)C3O[C@@H](C(=O)O)CCCOC32)[C@@H](O)C(O)[C@@H]1O (stereo partly shown) [Compound 25]	
7.3	CC[C@@H]1CCC[C@@H](O[C@@H]2OC(CO)[C@H](O)C3O[C@@H](C(=O)O)CCCCOC32)C1O[C@@H]1OC(C)[C@@H](O)C(O)[C@@H]1O (stereo partly shown) [Compound 39]	
3.8	CC[C@@H]1CCC[C@@H](O[C@@H]2OC(CO)[C@H](O)C3O[C@@H](C(=O)O)CCCOC32)C1O[C@@H]1OC(C)[C@@H](O)C(O)[C@@H]1O (stereo partly shown) [Compound 47]	
